Measured values: patent US20170166558A1, “O-GLCNAC TRANSFERASE (OGT) INHIBITORS AND USES THEREOF” (President and Fellows of Harvard College, priority 2014, published 2017)

Tests used:
sOGT [1] = target: T1, sOGT (Homo sapiens, UniProt O15294); assay: Fluorescence polarization displacement screen with fluorescein-linked UDP-GlcNAc analog; assay type: binding; details: fluorescence displacement in vitro assay; for IC50: read-out: IC50 (sOGT inhibition)
T1 sequence (O15294 1-665 isoform O15294-4): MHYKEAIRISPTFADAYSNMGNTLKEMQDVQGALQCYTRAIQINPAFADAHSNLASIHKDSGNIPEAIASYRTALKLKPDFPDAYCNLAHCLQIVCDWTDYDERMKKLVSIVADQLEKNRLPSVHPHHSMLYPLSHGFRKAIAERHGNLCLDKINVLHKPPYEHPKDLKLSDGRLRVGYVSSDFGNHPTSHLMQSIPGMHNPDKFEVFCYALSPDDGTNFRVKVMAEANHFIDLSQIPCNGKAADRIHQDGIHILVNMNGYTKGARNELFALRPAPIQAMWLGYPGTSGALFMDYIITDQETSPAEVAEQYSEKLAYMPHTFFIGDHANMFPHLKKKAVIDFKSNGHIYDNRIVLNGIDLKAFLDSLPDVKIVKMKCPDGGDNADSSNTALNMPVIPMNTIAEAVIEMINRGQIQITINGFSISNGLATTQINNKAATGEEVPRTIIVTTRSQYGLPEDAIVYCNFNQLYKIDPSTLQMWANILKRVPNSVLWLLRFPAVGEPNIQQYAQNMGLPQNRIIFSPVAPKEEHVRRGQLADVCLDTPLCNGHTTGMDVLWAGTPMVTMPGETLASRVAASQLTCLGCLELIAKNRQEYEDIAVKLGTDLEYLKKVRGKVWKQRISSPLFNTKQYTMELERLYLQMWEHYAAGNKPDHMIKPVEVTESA
Method: About 1000 compound library was serially diluted in DMSO from the 5 mg/ml plates fivefold 3 times, such that 4 different concentrations of compounds were prepared. Compound libraries of the 4 concentrations in duplicated were then transferred to the assay plates using a 100 nL pin array, resulting in a final compound concentration of 25 μg/mL or ˜70 μM at the highest of the four concentrations, assuming an average compound MW of 350. Using a Perkin Elmer Envision® microplate reader, the sample was excited at 480 nm in the vertical plane, and simultaneous emission intensity (535 nm) of the vertical and horizontal polarization planes was measured. The polarization was calculated using the following equation:eq4: mP=1000*(V−G*H)/(V+G*H)where: mP=millipolarization units, V=intensity of vertically polarized emission (RFU), H=intensity of horizontally polarized emission (RFU), and G=gain.
Compounds were screened at […] different concentrations in a fluorescence displacement assay (FIG. 13A)^27. Using the known binding constant for the substrate analog, the dose-response data allowed us to estimate binding affinities (Ki values) for the hits. […] Various analogs were prepared based on a modular assembly (as in FIG. 13B), and OGT inhibition was assessed both in vitro and in cells.

CHO cells = assay: ApoTox-Glo cell viability, cytotoxicity and apoptosis signaling assay; assay type: cell-based, Chinese hamster
Method: Cell viability, cytotoxicity and apoptosis signaling assays were performed in a 96-well plate using ApoTox-Glo reagent (Promega) according to the manufacturer's instructions.

ncOGT = target: T2, ncOGT (Homo sapiens, UniProt O15294); assay: Radiometric capture assay with Nup62 acceptor and UDP-14C-GlcNAc; assay type: biochemical; details: radiometric capture assay
T2 construct: full length human OGT (ncOGT); made in house
T2 sequence (O15294 1-1046): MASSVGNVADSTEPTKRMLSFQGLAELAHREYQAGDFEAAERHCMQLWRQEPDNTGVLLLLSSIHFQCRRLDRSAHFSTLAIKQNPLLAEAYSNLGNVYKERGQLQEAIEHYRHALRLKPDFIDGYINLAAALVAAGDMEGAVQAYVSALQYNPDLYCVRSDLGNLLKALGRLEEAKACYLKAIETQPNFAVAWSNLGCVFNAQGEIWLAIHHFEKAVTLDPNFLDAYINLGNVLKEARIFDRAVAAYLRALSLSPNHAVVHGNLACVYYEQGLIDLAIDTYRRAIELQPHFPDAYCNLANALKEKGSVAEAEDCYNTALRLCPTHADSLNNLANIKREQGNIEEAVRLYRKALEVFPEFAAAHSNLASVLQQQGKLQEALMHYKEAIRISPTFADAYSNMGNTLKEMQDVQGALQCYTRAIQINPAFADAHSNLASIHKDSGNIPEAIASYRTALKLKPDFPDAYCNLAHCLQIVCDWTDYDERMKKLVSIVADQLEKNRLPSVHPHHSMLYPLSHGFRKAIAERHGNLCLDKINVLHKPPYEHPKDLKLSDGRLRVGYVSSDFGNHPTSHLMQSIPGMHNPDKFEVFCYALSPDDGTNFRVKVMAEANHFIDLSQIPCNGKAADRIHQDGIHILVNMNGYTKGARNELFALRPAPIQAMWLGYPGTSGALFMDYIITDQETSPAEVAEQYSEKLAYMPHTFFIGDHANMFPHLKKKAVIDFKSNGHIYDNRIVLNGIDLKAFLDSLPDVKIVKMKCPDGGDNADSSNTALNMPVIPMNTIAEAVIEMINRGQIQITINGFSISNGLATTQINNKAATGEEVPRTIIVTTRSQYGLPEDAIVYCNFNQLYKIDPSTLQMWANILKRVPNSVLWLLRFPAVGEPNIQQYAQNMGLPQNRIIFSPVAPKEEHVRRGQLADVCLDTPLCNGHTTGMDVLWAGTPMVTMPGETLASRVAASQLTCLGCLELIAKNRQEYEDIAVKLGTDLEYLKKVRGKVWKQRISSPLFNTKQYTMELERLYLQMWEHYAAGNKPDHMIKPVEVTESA
Method: Radiometric capture assay: Nucleoporin 62 (Nup62) was used as a model substrate. IC50 values of the both inhibitors were determined at range of 0 to 100 μM (eight point, duplicate). OGT antagonists were tested in a reaction mixture containing 18 μM Nup62, 6 μM UDP-^14C-GlcNAc, 100 nM ncOGT, and lx phosphate-buffered saline (1× PBS) (137 mM NaCl, 2.7 mM KCl, 10 mM Na2HPO4, and 1.8 mM KH2PO4, pH 7.4). The Nup62 glycosylation reactions were run for 15 min at 37° C. Reaction mixtures were subsequently quenched by spottinged on Whatman® Protran® nitrocellulose membrane, washed with 1× PBS three times for 15 minutes each. The membranes were air dried and then counted by liquid scintillation counting. The data were analyzed by Microsoft® Excel and Prism 6 (Graphpad®). Robust non-linear variable slope regressions were generated to determine the IC50 and Hill slope values.
In order to evaluate the mode of inhibition of OSMI-1 and UDP-5S-GlcNAc, a series of experiments, as outlined above, were performed with Nup62 as glycosylation substrate. The inhibition test of OSMI-1 was performed by varying the UDP-^14C-GlcNAc concentration from 0 to 0.25 mM while holding concentration of Nup62 constant at 10 μM with four different concentrations of OSMI-1 (0 to 2 μM) in 1× PBS with 100 nM ncOGT and with fixed and saturating concentrations of GST-Nup62 acceptor. The inhibition test of UDP-5S-GlcNAc was performed by varying the UDP-^14C-GlcNAc concentration from 0 to 1 mM while holding concentration of Nup62 constant at 10 μM with five different concentrations of UDP-5S-GlcNAc (0, 1, 5, 10, and 15 μM) in 1× PBS with 100 nM ncOGT. Each reaction was spotted on Whatman® grade P81 ion exchange chromatography paper circles, washed with 1× PBS three times for 15 minutes each. The membranes were air dried and then counted by liquid scintillation counting. Each assay was duplicated in parallel. The data were analyzed by Microsoft® Excel and Prism 6 (Graphpad®). The Michaelis-Menten plots and Ki of both inhibitors calculated under non-linear regression with competitive inhibition mode are shown in FIG. 5.

OGT in CHO cells = assay: Immunoblotting of global O-GlcNAcylation (RL2) in CHO cells; assay type: cell-based, Chinese hamster; details: 24 hours, up to 50 μM
Method: In vivo inhibition of glycosylation: For all immunoblotting experiments, CHO-K1 (CHO) cells were grown in F12-K media supplemented with 10% FBS and antibiotics at 37° C. in a 5% CO2 incubator. Cells were treated by adding indicated inhibitor in DMSO vehicle (0.5% final vehicle concentration) upon reaching 70% confluence. After indicated treatment length, cells were harvested by aspirating growth media and washing with ice cold 1× PBS. Cells were subsequently lysed in boiling 1% SDS/20 mM HEPES 7.9. After cooling to room temperature, 1 mM PMSF, 10 μM PUGNAC, 10 μM TMG and 1× Complete protease inhibitor cocktail were added to the solution. The mixture was sonicated and then subjected to a 5 minute incubation at 95° C. The samples were centrifuged for 15 minutes at 20,000×g and the supernatant was collected and the total protein was measured by BCA assay (BIO-RAD).
The sample was separated by SDS-PAGE (Bio-Rad 4-15%, Cat: 345-0028), transferred to a nitrocellulose membrane (iBlot, Invitrogen) and probed with the indicated antibody. Tyipcally, membranes were blocked with 4% BSA in 1× TBS+0.04% tween-20 for 1 hour before incubating with antibody (typically diluted 1:1000 in 4% BSA inlx TBS+0.04% tween-20) overnight at 4° C. Membranes were then washed three times with 1× TBS+0.04% tween-20 and incubated with secondary antibody (typically diluted 1:5000 in 4% BSA in 1× TBS+0.04% tween-20) for 1 hour at room temperature. Lastly, membranes were washed 3× with 1× TBS+0.04% tween-20 and imaged with ECL. D283-Med cells were treated as above but grown in F12-K media supplemented with 10% FBS and antibiotics. HEK, HeLa and LNCaP cells were treated as above but grown in RPMI media supplemented with 10% FBS and antibiotics.

sOGT [2] = target: T1, sOGT; assay: Fluorescence polarization displacement screen with fluorescein-linked UDP-GlcNAc analog; assay type: binding; details: 100 μM treatment

| Structure (SMILES) | % OGT activity (100 μM treatment) (sOGT [2]) | also measured |
| --- | --- | --- |
| CC(C)N(Cc1ccccc1)C(=O)[C@H](NS(=O)(=O)c1ccc2[nH]c(=O)ccc2c1)c1ccccc1 | – | IC50 (sOGT [1]): 7 µM |
| Cc1ccc(N2CCN(C(=O)[C@H](NS(=O)(=O)c3ccc4[nH]c(=O)ccc4c3)c3ccccc3)CC2)cc1 | – | IC50 (sOGT [1]): 9 µM |
| O=C([C@H](NS(=O)(=O)c1ccc2[nH]c(=O)ccc2c1)c1ccccc1)N1CCC(Cc2ccccc2)CC1 | – | Ki (sOGT [1]): 2 µM |
| O=C([C@@H](Cc1ccccc1)NS(=O)(=O)c1ccc2[nH]c(=O)ccc2c1)N(Cc1ccco1)Cc1cccs1 [PG34, (R)—N-(furan-2-ylmethyl)-2-(2-oxo-1,2-dihydroquinoline-6-sulfonamido)-3-phenyl-N-(thiophen-2-ylmethyl)propanamide] | – | Effect on cell viability (CHO cells): affected cell viability similarly to OSMI-1; Apoptotic signaling (CHO cells; up to 50 μM): Neither compound displayed an effect on apoptotic signaling; In vitro inhibitory activity against OGT (ncOGT): poor in vitro inhibitory activity against OGT; Effect on global O-GlcNAcylation (OGT in CHO cells): no reduction in global O-GlcNAc levels |
| O=C(C(NS(=O)(=O)c1ccc2[nH]c(=O)ccc2c1)c1ccccc1C(F)(F)F)N(Cc1ccco1)Cc1cccs1 (stereo not shown) [drawing 121] | 11% | – |
| O=C(C(NS(=O)(=O)c1ccc2[nH]c(=O)ccc2c1)c1ccc(C(F)(F)F)cc1)N(Cc1ccco1)Cc1cccs1 (stereo not shown) [drawing 122] | 33% | – |
| O=C(C(NS(=O)(=O)c1ccc2[nH]c(=O)ccc2c1)c1ccccc1C(F)(F)F)N(Cc1ccco1)Cc1cccs1 (stereo not shown) [drawing 125] | 38% | – |
| O=C(C(NS(=O)(=O)c1ccc2[nH]c(=O)ccc2c1)c1ccc(C(F)(F)F)cc1)N(Cc1ccco1)Cc1cccs1 (stereo not shown) [drawing 126] | 54% | – |
| O=C(C(NS(=O)(=O)c1ccc2[nH]c(=O)ccc2c1)c1cccc(C(F)(F)F)c1)N(Cc1ccco1)Cc1cccs1 (stereo not shown) [drawing 127] | 29% | – |
| O=C(C(NS(=O)(=O)c1ccc2[nH]c(=O)ccc2c1)c1cccc(C(F)(F)F)c1)N(Cc1ccco1)Cc1cccs1 (stereo not shown) [drawing 128] | 7.4% | – |
| O=C(C(NS(=O)(=O)c1ccc2[nH]c(=O)ccc2c1)c1ccccc1F)N(Cc1ccco1)Cc1cccs1 (stereo not shown) [drawing 129] | 0.5% | – |
| Cc1ccc(C(NS(=O)(=O)c2ccc3[nH]c(=O)ccc3c2)C(=O)N(Cc2ccco2)Cc2cccs2)cc1 (stereo not shown) [drawing 130] | 11% | – |
| Cc1cccc(C(NS(=O)(=O)c2ccc3[nH]c(=O)ccc3c2)C(=O)N(Cc2ccco2)Cc2cccs2)c1 (stereo not shown) [drawing 131] | No inhibition | – |
| Cc1ccccc1C(NS(=O)(=O)c1ccc2[nH]c(=O)ccc2c1)C(=O)N(Cc1ccco1)Cc1cccs1 (stereo not shown) [drawing 132] | 4.5% | – |
| O=C(C(NS(=O)(=O)c1ccc2[nH]c(=O)ccc2c1)c1ccccc1F)N(Cc1ccco1)Cc1cccs1 (stereo not shown) [drawing 133] | 24% | – |
| Cc1ccc(C(NS(=O)(=O)c2ccc3[nH]c(=O)ccc3c2)C(=O)N(Cc2ccco2)Cc2cccs2)cc1 (stereo not shown) [drawing 134] | 66% | – |
| Cc1cccc(C(NS(=O)(=O)c2ccc3[nH]c(=O)ccc3c2)C(=O)N(Cc2ccco2)Cc2cccs2)c1 (stereo not shown) [drawing 135] | No inhibition | – |
| Cc1ccccc1C(NS(=O)(=O)c1ccc2[nH]c(=O)ccc2c1)C(=O)N(Cc1ccco1)Cc1cccs1 (stereo not shown) [drawing 136] | 10% | – |
| O=C([C@@H](Cc1ccccc1)NS(=O)(=O)c1ccc2[nH]c(=O)ccc2c1)N(Cc1ccco1)Cc1cccs1 [drawing 149] | – | remaining activity at 100 µM (sOGT [2]; read-out: % OGT activity (100 μM treatment)): 53% |
